In the assay the test system is C57B1/6J mice. The experiment in a line: Size and number of pancreatic islets after vATPase inhibitors. The settings on record: for No. islets per mm^2 pancreas section / Median size: day 84, 5 daily doses of 12 ng/g body weight; for effect on islet number and size: i.p. 12 ng/gram body weight; for Median size: insulin-positive islets. The assay is classed as in vivo. The method, then:
The effect of vATPase inhibitors on the size and number of pancreatic islets was analysed in C57B1/6J using either bafilomycin A1 (BA1) or concanamycin A (CMA). The effect of Streptozotocin, an islet beta-cell specific toxin produced by Streptomyces achromogenes was also examined, to enable comparison with the effect of vATPase inhibitors.
Groups of 4 female C57B1/6J mice were injected with 5 doses on 5 consecutive days of 12 ng/g body weight BA1, CMA or the well characterised islet β-cell toxin streptozotocin. Pancreases were removed on day 84 and 3 formalin-fixed sections per mouse were immunostained for insulin. The area of insulin-positive islets was measured on digital images using MCID software.

From patent publication US20050132448A1, “Assay for beta cell toxic macrolides” (priority 2001, published 2005) come the findings set out here.

`C/C=C/[C@H]1O[C@@](O)([C@@H](C)[C@H](O)[C@H](C)[C@H]2OC(=O)/C(OC)=C/C(C)=C/[C@@H](C)[C@@H](O)[C@@H](CC)[C@@H](O)[C@H](C)C/C(C)=C/C=C/[C@@H]2OC)C[C@@H](O[C@H]2C[C@@H](O)[C@H](OC(N)=O)[C@@H](C)O2)[C@@H]1C` [CMA, concanamycin A]: the “No. islets per mm^2 pancreas section” value came out at 0.78 per mm^2 pancreas section; the “effect on islet number and size” value is on record as “increased the number of small islets”; the Median size is 3170 μm^2.
Turning to `CN(N=O)C(=O)N[C@H]1C(O)O[C@H](CO)[C@@H](O)[C@@H]1O` (mixture of isomers) [Streptozotocin], the “No. islets per mm^2 pancreas section” value was found to be 0.46 per mm^2 pancreas section; the “effect on islet number and size” value is recorded as “reduces the number of islets but does not induce the formation of new islets”; the Median size stood at 5890 μm^2.
